In article PMC11597089, “Kratom Alkaloids: A Blood–Brain Barrier Specific Membrane Permeability Assay-Guided Isolation and Cyclodextrin Complexation Study” (Molecules, 2024):

Tests used:
Assay type in all cases: physicochemical
[1] = ACE complex stability, HP-γ-CD; conditions: hydroxypropylated-γ-CD DS~3, 30 mM phosphate buffer pH 7.4, 25 °C
Method: (§1) To investigate the CD complexation behavior of the four kratom alkaloids, we aimed to develop an ACE method for a systematic comparative study. […] To ensure sufficient buffer capacity and to avoid excessive current and Joule heat generation, the buffer concentration was set to 30 mM, and the applied voltage was 15 kV.
(§2) The ACE experiments were performed by using Agilent 7100 and HP^3DCE instruments (Agilent Technologies, Waldbronn, Germany). Untreated fused silica capillaries (total length of 48.5 cm, effective length of 40 cm, inner diameter of 50 μm) were purchased from Agilent Technologies. The new capillaries were conditioned with a 1 M NaOH wash for 1 h, followed by a 30 min wash each with 0.1 M NaOH and purified water. Prior to all runs, the capillary was preconditioned by rinsing with background electrolyte for 3 min. During the measurements, 30 mM phosphate buffer at pH 7.4 (30 mM Na2HPO4-NaOH) was used. The background electrolyte contained CDs at various concentrations. Stock solutions of the studied kratom alkaloids (mitragynine, paynantheine, speciogynine, speciociliatine) were prepared separately in methanol (1 mg/mL), and, right before the measurements, appropriate dilutions with purified water were used to prepare the sample solutions, applying 0.1% DMSO as the electroosmotic flow (EOF) marker. The samples were injected hydrodynamically at 40 mbar for 3 s. The positive polarity voltage was set to 15 kV, and the capillary was set to 25 °C. The electropherograms were recorded at four wavelengths (200 nm, 210 nm, 215 nm, and 220 nm), and the data were evaluated at 215 nm. In each case, three parallel measurements were performed. The measurements were evaluated using Origin and CEval software (v. 0.6i3).
(§3) In order to determine the complex stability constants that characterized the strength of the complexes, the first step was to determine the effective mobility of the analyte at specific CD concentrations. Triangular peaks caused by electromigration dispersion are often observed in ACE measurements. […]

[2] = ACE complex stability, CM-β-CD; conditions: carboxymethylated-β-CD DS~3, 30 mM phosphate buffer pH 7.4, 25 °C
Method: as §1, §2
(§4) In order to determine the complex stability constants that characterized the strength of the complexes, the first step was to determine the effective mobility of the analyte at specific CD concentrations. Triangular peaks caused by electromigration dispersion are often observed in ACE measurements.
(§5) Assuming a 1:1 complexation ratio and that the equilibrium CD concentration is almost equal to the total CD concentration, a relationship between the effective mobility relative to the EOF and the complex stability constant can be described by Function (4) (4) μeff=μA+μACDKstabCD/1+KstabCD where µeff is the effective mobility of the analyte, µA and µACD are the free and complexed analyte mobilities, [CD] is the concentration of the selector, and Kstab is the complex stability constant.
(§6) In order to calculate the exact, apparent, averaged complex stability constant values, viscosity correction and ionic strength correction were used.

[3] = ACE complex stability, PYR-β-CD; conditions: 6-monodeoxy-6-pyrrolidine-β-CD, positively charged, 30 mM phosphate buffer pH 7.4, 25 °C
Method: as §1, §2, §4, §5, §6

[4] = ACE complex stability, β-CD; conditions: 30 mM phosphate buffer pH 7.4, 25 °C, 15 kV, 215 nm
Method: as §1, §2, §4, §5, §6

[5] = ACE complex stability, α-CD; conditions: 30 mM phosphate buffer pH 7.4, 25 °C, 15 kV, 215 nm
Method: as §1, §2, §4, §5, §6

[6] = ACE complex stability, DIME-β-CD; conditions: dimethylated-β-CD DS~14, 30 mM phosphate buffer pH 7.4, 25 °C
Method: as §1, §2, §3

[7] = ACE complex stability, MA-β-CD; conditions: mono-(6-N-amino-6-deoxy)-β-CD, positively charged, 30 mM phosphate buffer pH 7.4, 25 °C
Method: as §1, §2, §4, §5, §6

[8] = ACE complex stability, HDMS-β-CD; conditions: heptakis-(2,3-O-dimethyl, 6-O-sulfo)-β-CD, 30 mM phosphate buffer pH 7.4, 25 °C
Method: as §1, §2, §4, §5, §6

[9] = ACE complex stability, HPA-β-CD; conditions: mono-6^A-(3-hydroxy)propylamino-β-CD, positively charged, 30 mM phosphate buffer pH 7.4, 25 °C
Method: as §1, §2, §4, §5, §6

[10] = ACE complex stability, PIP-β-CD; conditions: 6-monodeoxy-6-piperidine-β-CD, positively charged, 30 mM phosphate buffer pH 7.4, 25 °C
Method: as §1, §2, §4, §5, §6

[11] = ACE complex stability, MePYR-β-CD; conditions: mono-6^A-(N-methyl-pyrrolidine)-β-CD, positively charged, 30 mM phosphate buffer pH 7.4, 25 °C
Method: as §1, §2, §4, §5, §6

[12] = ACE complex stability, HMDiSu-β-CD; conditions: heptakis-(2-O-methyl, 3,6-O-disulfo)-β-CD, 30 mM phosphate buffer pH 7.4, 25 °C
Method: as §1, §2, §4, §5, §6

[13] = ACE complex stability, CM-γ-CD; conditions: carboxymethylated-γ-CD DS~4, 30 mM phosphate buffer pH 7.4, 25 °C
Method: as §1, §2, §4, §5, §6

[14] = ACE complex stability, Sugammadex; conditions: octakis(6-deoxy-6-(2-carboxyethyl)thio)-γ-CD, 30 mM phosphate buffer pH 7.4, 25 °C
Method: as §1
(§7) The ACE experiments were performed by using Agilent 7100 and HP^3DCE instruments (Agilent Technologies, Waldbronn, Germany). Untreated fused silica capillaries (total length of 48.5 cm, effective length of 40 cm, inner diameter of 50 μm) were purchased from Agilent Technologies. The new capillaries were conditioned with a 1 M NaOH wash for 1 h, followed by a 30 min wash each with 0.1 M NaOH and purified water. Prior to all runs, the capillary was preconditioned by rinsing with background electrolyte for 3 min. During the measurements, 30 mM phosphate buffer at pH 7.4 (30 mM Na2HPO4-NaOH) was used. The background electrolyte contained CDs at various concentrations. […] The electropherograms were recorded at four wavelengths (200 nm, 210 nm, 215 nm, and 220 nm), and the data were evaluated at 215 nm. […] The measurements were evaluated using Origin and CEval software (v. 0.6i3). […]

[15] = ACE complex stability, CE-β-CD; conditions: carboxyethylated-β-CD DS~3, 30 mM phosphate buffer pH 7.4, 25 °C
Method: as §1, §2, §4, §5, §6

[16] = ACE complex stability, HS-β-CD; conditions: heptakis-(6-O-sulfo)-β-CD, 30 mM phosphate buffer pH 7.4, 25 °C
Method: as §1, §2, §3

[17] = ACE complex stability, Phos-β-CD; conditions: phosphated-β-CD DS~2-6, 30 mM phosphate buffer pH 7.4, 25 °C
Method: as §1, §2, §4, §5, §6

[18] = ACE complex stability, SBE-β-CD DS~4; conditions: sulfobutyl-ether-β-CD DS~4, 30 mM phosphate buffer pH 7.4, 25 °C
Method: as §1, §2, §4, §5, §6

[19] = ACE complex stability, MePIP-β-CD; conditions: mono-6^A-(N-methyl-piperidine)-β-CD, positively charged, 30 mM phosphate buffer pH 7.4, 25 °C
Method: as §1, §2, §4, §5, §6

[20] = ACE complex stability, γ-CD; conditions: 30 mM phosphate buffer pH 7.4, 25 °C, 15 kV, 215 nm
Method: as §1, §2, §4, §5, §6

[21] = ACE complex stability, SP-β-CD; conditions: sulfopropylated-β-CD DS~2, 30 mM phosphate buffer pH 7.4, 25 °C
Method: as §1, §7

[22] = ACE complex stability, CM-α-CD; conditions: carboxymethylated-α-CD DS~3.5, 30 mM phosphate buffer pH 7.4, 25 °C
Method: as §1, §2, §3

Compound | complex stability constant (Kstab) with HP-γ-CD [1] [M⁻¹] | complex stability constant (Kstab) with CM-β-CD [2] [M⁻¹] | complex stability constant (Kstab) with PYR-β-CD [3] [M⁻¹] | complex stability constant (Kstab) with β-CD [4] [M⁻¹] | complex stability constant (Kstab) with α-CD [5] [M⁻¹] | complex stability constant (Kstab) with DIME-β-CD [6] [M⁻¹] | complex stability constant (Kstab) with MA-β-CD [7] [M⁻¹] | complex stability constant (Kstab) with HDMS-β-CD [8] [M⁻¹] | complex stability constant (Kstab) with HPA-β-CD [9] [M⁻¹] | complex stability constant (Kstab) with PIP-β-CD [10] [M⁻¹] | complex stability constant (Kstab) with MePYR-β-CD [11] [M⁻¹] | complex stability constant (Kstab) with HMDiSu-β-CD [12] [M⁻¹] | complex stability constant (Kstab) with CM-γ-CD [13] [M⁻¹] | complex stability constant (Kstab) with CE-β-CD [15] [M⁻¹] | complex stability constant (Kstab) with HS-β-CD [16] [M⁻¹] | complex stability constant (Kstab) with Phos-β-CD [17] [M⁻¹] | complex stability constant (Kstab) with SBE-β-CD DS~4 [18] [M⁻¹] | complex stability constant (Kstab) with MePIP-β-CD [19] [M⁻¹] | complex stability constant (Kstab) with γ-CD [20] [M⁻¹] | complex stability constant (Kstab) with CM-α-CD [22] [M⁻¹] | also measured
CC[C@@H]1CN2CCc3c([nH]c4cccc(OC)c34)[C@H]2C[C@@H]1/C(=C\OC)C(=O)OC [Speciociliatine, speciociliatine] | 220 ± 25 | 230 ± 20 | < 10 | 35 ± 3 | 22 ± 3 | 100 ± 6 | < 10 | 105 ± 12 | < 10 | < 10 | < 10 | 100 ± 1 | 120 ± 12 | 160 ± 10 | 850 ± 30 | 215 ± 15 | 670 ± 60 | < 10 | 15 ± 1 |  | complex stability constant (Kstab) with Sugammadex [14]: 700 ± 45 M⁻¹
mitragynine | 230 ± 35 | 215 ± 20 | < 10 | 145 ± 20 | 25 ± 2 | 150 ± 15 | < 10 | 175 ± 7 | < 10 | < 10 | < 10 | 230 ± 25 | 200 ± 10 | 210 ± 20 |  | 290 ± 30 | 550 ± 35 | < 10 | 55 ± 5 | 155 ± 15 | complex stability constant (Kstab) with SP-β-CD [21]: 210 ± 25 M⁻¹; complex stability constant (Kstab) with Sugammadex [14]: 2050 M⁻¹
CC[C@H]1CN2CCc3c([nH]c4cccc(OC)c34)[C@@H]2C[C@@H]1/C(=C\OC)C(=O)OC [Speciogynine, speciogynine] |  | 170 ± 15 | < 10 | 65 ± 9 | 23 ± 5 |  | < 10 | 30 ± 3 | < 10 | < 10 | < 10 | 530 ± 10 | 140 ± 12 | 375 ± 25 | 645 ± 30 | 420 ± 30 | 610 ± 60 | < 10 | 45 ± 4 | 135 ± 12 | 
C=C[C@H]1CN2CCc3c([nH]c4cccc(OC)c34)[C@@H]2C[C@@H]1/C(=C\OC)C(=O)OC [Paynantheine, paynantheine] | 325 ± 50 | 185 ± 15 | < 10 | 145 ± 15 | 20 ± 2 | 325 ± 30 | < 10 | 135 ± 14 | < 10 | < 10 | < 10 | 350 ± 10 | 180 ± 20 | 625 ± 40 | 575 ± 35 | 335 ± 30 | 830 ± 50 | < 10 | 140 ± 5 | 175 ± 12 | complex stability constant (Kstab) with SP-β-CD [21]: 335 ± 35 M⁻¹
